The source of these data is paper PMC5268410, “Mode of Action of the Natural Insecticide, Decaleside Involves Sodium Pump Inhibition” (PLoS ONE, 2017).

In experiment [1] the target is T1, purified Na^+, K^+ -ATPase (porcine cerebral cortex).
T1 construct: gene ATP1A1; commercial native enzyme purified from porcine cerebral cortex (Sigma); with Sodium/potassium-transporting ATPase subunit beta-1; Sodium/potassium-transporting ATPase subunit beta-2
The experiment in a line: phosphate release from ATP, ouabain-inhibitable activity. The note with it: 1.5 mM ATP; Na+ 0.14 M, K+ 14 mM, Mg2+ 3 mM; 37°C; 30 min preincubation; competitive with ATP. It is filed as biochemical, Sus scrofa.

Experiment [2] shares this target. The experiment in a line: phosphate release from ATP. It is filed as biochemical, Sus scrofa. The settings on record: 1.5 mM ATP; Na+ 0.14 M, K+ 14 mM, Mg2+ 3 mM; 37°C.

For the molecule decaleside I, the IC50 in experiment [1] is 105 µM.

Consider `C[C@@H]1O[C@@H](O[C@H]2C[C@@H](O)[C@]3(CO)[C@H]4[C@H](O)C[C@]5(C)[C@@H](C6=CC(=O)OC6)CC[C@]5(O)[C@@H]4CC[C@]3(O)C2)[C@H](O)[C@H](O)[C@H]1O` [Ouabain], for which, in experiment [2], the midpoint of inhibition, the IC50, lay at 254 µM.

decaleside II came in with an IC50 in experiment [1] of 95 µM.
